Patent US12655150B2 (Cedilla Therapeutics, Inc., priority 2021, dated 2026)

Each compound was assayed on NCI-H226 (assay: 72H TEAD Proliferation Assay (Cell Titer Glo 2.0)). Conditions: Homo sapiens, NCI-H226, 72 h, CTG 2.0, cell line not given (NCI-H226 responsive, NCI-H28 non-responsive).
Assay type: cell-based
Experimental: 72H TEAD Proliferation Assay.
The effect of TEAD inhibition on cell proliferation was assayed using Cell Titer Glo (CTG) 2.0 to measure response in mesothelioma cell lines NCI-H226 (ATCC, #CRL-5826) and NCI-H28 (ATCC, #CRL-5820).
The 72H TEAD Proliferation assay utilizes Cell Titer-Glo 2.0 (Promega, #G9243) to measure the proliferation of cells in the presence or absence of compound. Cell Titer-Glo 2.0 determines the amount of viable cells by quantifying ATP (an indication of metabolically active cells). It utilizes the conversion of Luciferin to Oxyluciferin and a luminescent signal with the use of ATP to report the quantity of viable cells in culture. Within cells that are continually growing, ATP is being synthesized to meet their metabolic demands, meanwhile the opposite is true for cells that are dying or slowing down their proliferation and either no longer using ATP or are using less, respectively. The NF2-deficient NCI-H226 has been genetically validated as a cell line that is sensitive to TEAD inhibition. The NF2-wild type NCI-H28 has been genetically validated as a cell line that is not sensitive to TEAD inhibition and grows independently of TEAD activity.
Compounds were screened against the responsive NCI-H226 cell line to assess the compounds' ability to inhibit TEAD and cell growth. Compounds were also screened against the non-responsive NCI-H28 cell line to ascertain whether the inhibition of cell growth was due to inhibition of the target TEAD or whether the inhibition was due to off-target cytotoxicity.
• 1) Assay ready plates (ARPs) were prepared by Echo acoustic liquid handler. […] After CTG addition, plates were placed on shaker at 800 RPM for 15 minutes at room temperature and kept in the dark. Luminescence was measured using EnVision multilabel plate reader with ultra-sensitive detection module. • 9) Data Analysis: First background luminescence (no CTG wells) was subtracted from luminescence reading of all wells, then TO luminescence was subtracted from T72 luminescence. To compare anti-proliferative effect of compounds, GI50 was obtained by fitting dose response curves with nonlinear regression curve fit.
Compound `O=C(O)c1ccc2c(c1)nc(-c1ccncc1)c1cccn12` [I-47, 4-(Pyridin-4-yl)pyrrolo[1,2-a]quinoxaline-7-carboxylic acid] has a GI50 greater than 10 µM. `O=C(O)c1ccc2c(c1)nc(-c1ccc(C(F)(F)F)cc1)c1cc(OC(F)F)cn12` [I-275, 2-(difluoromethoxy)-4-(4-(trifluoromethyl)phenyl)pyrrolo[1,2-a]quinoxaline-7-carboxylic acid] was tested, and the GI50 was no more than 1 µM. `CN(C)c1cc(-c2ccc(C(F)(F)F)cc2)nc2cc(C(=O)O)ccc12` [I-392, 4-(dimethylamino)-2-(4-(trifluoromethyl)phenyl)quinoline-7-carboxylic acid] gave a GI50 of 1 to 5 µM. `C=CC(=O)NCc1cn2cccc2c(-c2ccc(C(C)(C)C)cc2)n1` [I-111, N-((1-(4-(tert-butyl)phenyl)pyrrolo[1,2-a]pyrazin-3-yl)methyl)acrylamide] showed a GI50 of no more than 1 µM. With `CC[C@H](CO)NC(=O)c1ccc2c(OC)cc(-c3ccc(C(F)(F)F)cc3C(F)(F)F)nc2c1` [I-338, (R)-2-(2,4-bis(trifluoromethyl)phenyl)-N-(1-hydroxybutan-2-yl)-4-methoxyquinoline-7-carboxamide] the GI50 was 1 to 5 µM. Compound `C=CC(=O)NCc1cn2c(F)ccc2c(-c2ccc(C(F)(F)F)cc2)n1` [I-318, N-((6-Fluoro-1-(4-(trifluoromethyl)phenyl)pyrrolo[1,2-a]pyrazin-3-yl)methyl)acrylamide] has a GI50 of no more than 1 µM. Work on `CC(C)C1CCN(c2nc3cc(C(=O)O)ccc3n3cccc23)CC1` [I-12, 4-(4-Isopropylpiperidin-1-yl)pyrrolo[1,2-a]quinoxaline-7-carboxylic acid] yielded a GI50 of 1 to 5 µM. `CC(O)C(=O)Nc1ccc2c(c1)nc(-c1ccc(C(C)(C)C)cc1)c1cccn12` (centres unmarked) [I-204, N-(4-(4-(tert-Butyl)phenyl)pyrrolo[1,2-a]quinoxalin-7-yl)-2-hydroxypropanamide] gave a GI50 of 1 to 5 µM. `C=CC(=O)NCc1nc(-c2ccc(C(C)(C)C)cc2)c2ccc(F)cc2n1` [I-446, N-((4-(4-(tert-butyl)phenyl)-7-fluoroquinazolin-2-yl)methyl)acrylamide] gave a GI50 of no more than 1 µM. Work on `C=CC(=O)NCc1nc2ncccn2c1-c1ccc(C(F)(F)F)cc1` [I-410, N-((3-(4-(trifluoromethyl)phenyl)imidazo[1,2-a]pyrimidin-2-yl)methyl)acrylamide] yielded a GI50 of no more than 1 µM. For `CC(=O)Nc1ccc2c(c1)nc(-c1ccc(C(C)(C)C)cc1)c1nccn12` [I-135, N-(4-(4-(tert-butyl)phenyl)imidazo[1,2-a]quinoxalin-7-yl)acetamide], the GI50 was 1 to 5 µM. `CC(CO)NC(=O)c1ccc2c(c1)nc(-c1ccc(C(C)(C)C)cc1)c1cccn12` (centres unmarked) [I-186, 4-(4-(tert-butyl)phenyl)-N-(1-hydroxypropan-2-yl)pyrrolo[1,2-a]quinoxaline-7-carboxamide] showed a GI50 of 1 to 5 µM. `C=CC(=O)NCc1cn2cnnc2c(-c2ccc(C(F)(F)F)cc2)n1` [I-317, N-((8-(4-(trifluoromethyl)phenyl)-[1,2,4]triazolo[4,3-a]pyrazin-6-yl)methyl)acrylamide] showed a GI50 of 1 to 5 µM. Work on `O=C(O)c1ccc2c(c1)nc(N1CCC3(CCC3)C1)c1cccn12` [I-33, 4-(6-Azaspiro[3.4]octan-6-yl)pyrrolo[1,2-a]quinoxaline-7-carboxylic acid] yielded a GI50 of 5 to 10 µM. With `O=C(O)c1ccc2c(c1)nc(NCCC(F)(F)C(F)(F)F)c1cccn12` [I-121, 4-((3,3,4,4,4-Pentafluorobutyl)amino)pyrrolo[1,2-a]quinoxaline-7-carboxylic acid] the GI50 was 1 to 5 µM. Compound `Cc1cc(-c2ccc(C(F)(F)F)cc2)nc2cc(C(=O)N[C@@H](C)c3cccc(O)c3)ccc12` [I-269, (S)—N-(1-(3-hydroxyphenyl)ethyl)-4-methyl-2-(4-(trifluoromethyl)phenyl)quinoline-7-carboxamide] has a GI50 of no more than 1 µM. Compound `COc1cc(-c2ccc(C(F)(F)F)cc2)nc2cc(C(=O)N[C@@H](CO)c3ccccn3)ccc12` [I-365, (R)—N-(2-hydroxy-1-(pyridin-2-yl)ethyl)-4-methoxy-2-(4-(trifluoromethyl)phenyl)quinoline-7-carboxamide] has a GI50 of no more than 1 µM. With `CC[C@H](CO)NC(=O)c1ccc2c(OC)cc(-c3c(Cl)cc(C(F)(F)F)cc3Cl)nc2c1` [I-398, (R)-2-(2,6-dichloro-4-(trifluoromethyl)phenyl)-N-(1-hydroxybutan-2-yl)-4-methoxyquinoline-7-carboxamide] the GI50 was 1 to 5 µM. `O=C(O)c1ccc2c(c1)nc(N1CCC3(CCCOC3)CC1)c1cccn12` [I-26, 4-(2-Oxa-9-azaspiro[5.5]undecan-9-yl)pyrrolo[1,2-a]quinoxaline-7-carboxylic acid] was tested, and the GI50 was 5 to 10 µM. Work on `O=C(O)c1ccc2c(N3CCCCC3)cc(-c3ccc(C(F)(F)F)cc3)nc2c1` [I-391, 4-(piperidin-1-yl)-2-(4-(trifluoromethyl)phenyl)quinoline-7-carboxylic acid] yielded a GI50 of 1 to 5 µM. Work on `CC(C)(C)c1cccc(-c2nc3cc(C(=O)O)ccc3n3ccnc23)c1` [I-65, 4-(3-(tert-Butyl)phenyl)imidazo[1,2-a]quinoxaline-7-carboxylic acid] yielded a GI50 greater than 10 µM. In the case of `O=C(O)c1ccc2c(c1)nc(N1CCC(C(F)(F)F)CC1)c1cccn12` [I-38, 4-(4-(Trifluoromethyl)piperidin-1-yl)pyrrolo[1,2-a]quinoxaline-7-carboxylic acid], the GI50 is reported as greater than 10 µM. `CC[C@H](CO)NC(=O)c1ccc2c(OC)cc(-c3ccc(C(F)(F)F)cc3)nc2c1` [I-326, (R)—N-(1-hydroxybutan-2-yl)-4-methoxy-2-(4-(trifluoromethyl)phenyl)quinoline-7-carboxamide] gave a GI50 of no more than 1 µM. With `O=C(O)c1ccc2c(c1)nc(N1CCC3(CCCCC3)C1)c1cccn12` [I-28, 4-(2-Azaspiro [4.5]decan-2-yl) pyrrolo[1,2-a] quinoxaline-7-carboxylic acid] the GI50 was 1 to 5 µM. In the case of `COc1c(C)c(-c2ccc(C(F)(F)F)cc2)nc2cc(C(=O)N[C@H](C)CO)ccc12` [I-431, (R)—N-(1-hydroxypropan-2-yl)-4-methoxy-3-methyl-2-(4-(trifluoromethyl)phenyl)quinoline-7-carboxamide], the GI50 is reported as 5 to 10 µM. Work on `CC(C)(C)c1ccc(-c2nc(/C=C/C(=O)O)cn3ccnc23)cc1` [I-152, (E)-3-(8-(4-(tert-butyl)phenyl)imidazo[1,2-a]pyrazin-6-yl)acrylic acid] yielded a GI50 of 1 to 5 µM. Work on `C=CC(=O)NC1CCCc2ccc(-c3ccc(C(F)(F)F)cc3)nc21` (centres unmarked) [I-412, N-(2-(4-(trifluoromethyl)phenyl)-5,6,7,8-tetrahydroquinolin-8-yl)acrylamide] yielded a GI50 of 5 to 10 µM. Compound `CC(C)(C)c1ccc(-n2ccc3cc(C(=O)O)ccc32)cc1` [I-101, 1-(4-(tert-Butyl)phenyl)-1H-indole-5-carboxylic acid] has a GI50 greater than 10 µM. With `C=CC(=O)Nc1ccc2c(C)cc(-c3ccc(C(F)(F)F)cn3)nc2c1` [I-252, N-(4-methyl-2-(5-(trifluoromethyl)pyridin-2-yl)quinolin-7-yl)acrylamide] the GI50 was no more than 1 µM. `CC(C)c1cc(-c2ccc(C(F)(F)F)cc2)nc2cc(C(=O)N[C@H](C)CO)ccc12` [I-426, (R)—N-(1-hydroxypropan-2-yl)-4-isopropyl-2-(4-(trifluoromethyl)phenyl)quinoline-7-carboxamide] showed a GI50 of 1 to 5 µM. For `COc1ccc(-c2nc3cc(C(=O)O)ccc3n3ccnc23)cc1` [I-64, 4-(4-Methoxyphenyl)imidazo[1,2-a]quinoxaline-7-carboxylic acid], the GI50 was greater than 10 µM. `CC(C)(C)C#Cc1nc2cc(C(=O)O)ccc2n2cccc12` [I-118, 4-(3,3-Dimethylbut-1-yn-1-yl)pyrrolo[1,2-a]quinoxaline-7-carboxylic acid] gave a GI50 greater than 10 µM. Work on `C=CC(=O)NCc1cn2ccnc2c(-c2ccc(C(F)(F)F)cc2F)n1` [I-175, N-((8-(2-Fluoro-4-(trifluoromethyl)phenyl)imidazo[1,2-a]pyrazin-6-yl)methyl)acrylamide] yielded a GI50 of no more than 1 µM. In the case of `O=C(O)c1ccc2c(c1)nc(-c1ccc(C(F)(F)F)cc1Cl)c1cccn12` [I-53, 4-(2-Chloro-4-(trifluoromethyl)phenyl)pyrrolo[1,2-a]quinoxaline-7-carboxylic acid], the GI50 is reported as 1 to 5 µM. In the case of `COc1cc(-c2ccc(C(F)(F)F)cc2)nc2cc(C(=O)N[C@@H](C)c3ccccc3)ccc12` [I-351, (S)-4-methoxy-N-(1-phenylethyl)-2-(4-(trifluoromethyl)phenyl)quinoline-7-carboxamide], the GI50 is reported as no more than 1 µM. `Cc1cnc(-c2nc3cc(C(=O)O)ccc3n3cccc23)nc1` [I-129, 4-(5-Methylpyrimidin-2-yl)pyrrolo[1,2-a]quinoxaline-7-carboxylic acid] was tested, and the GI50 was 1 to 5 µM. Work on `C=CC(=O)NCC(=C)c1cn2ccnc2c(-c2ccc(C(F)(F)F)cc2)n1` [I-250, N-(2-(8-(4-(trifluoromethyl)phenyl)imidazo[1,2-a]pyrazin-6-yl)allyl)acrylamide] yielded a GI50 of no more than 1 µM. Work on `Cc1cc(-c2ccc(C(F)(F)F)cc2)nc2cc(C(N)=O)ccc12` [I-258, 4-Methyl-2-(4-(trifluoromethyl)phenyl)quinoline-7-carboxamide] yielded a GI50 of 1 to 5 µM.
